Measured values published in patent US8435962B2, “Triacetyl-3-hydroxyphenyladenosine and its use for regulating blood fat” (Institute of Mataria Medica, Chinese Academy of Medical …, priority 2009, dated 2013).

Key:
hyperlipidemia rats [1] = test: Effects on plasma lipid in hyperlipidemia rats (high-fat diet); format: in vivo, rat; details: 50 mg/kg intragastric, 4 weeks;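 further: rats kept on high-fat chow for 4 weeks before dosing, serum taken from abdominal aorta after a 12 h fast at end of treatment, controls given vehicle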
Procedure: (§2) After a week of accommodation, except control group (20 rat), all the rats (120 rats) were fed with high-fat laboratory chow.
(§3) After four weeks high-fat diet modeling, rats were treated with different drugs by intragastric administration. Control animals received an equal volume of vehicle.
(§4) At the end of 4 weeks drug treatment, animals were fasted for 12 hours before anesthetizing by intraperitoneal injection of pentobarbitale sodium (45 mg/kg), and anticoagulated by 100 U/kg heparin through caudal vein injection. Blood samples were collected from the abdominal aorta within 15 min, and serum was separated. Serum TC, TG, HDL-C, LDL-C, ALT, FFA were detected. Liver and the fat pad behind the belly were separated and weighed, the liver and retroperitoneal fat were weighed too. […] The left rats (10 rats each group) drug treatment was withdrawn while high-fat diet modeling continued. Two weeks later, blood sample was collected from the orbit, and serum TC, TG were detected.

hyperlipidemia rats [2] = test: Effects on retroperitoneal fat weight of hyperlipidemic rats; format: in vivo, rat; details: hyperlipidemic rats, 50 mg/kg intragastric, 4 weeks
Source text: (§1) Control animals received an equal volume of vehicle.

hyperlipidemia rats [3] = test: Effects on hepatic SOD activity and MDA content of hyperlipidemia rats; format: in vivo, rat; details: 50 mg/kg intragastric, 4 weeks
Source text: as §1

hyperlipidemia rats [4] = test: Serum lipid of hyperlipidemia rats after withdrawal from drugs for 2 weeks; format: in vivo, rat; details: rats, 50 mg/kg; 2 weeks after drug withdrawal, high-fat diet continued
Procedure: as §2, §3, §4

hyperlipidemia hamsters [5] = test: Effects on plasma lipid in hyperlipidemia hamsters (high-fat diet); format: in vivo, hamster; details: 50 mg/kg intragastric, 4 weeks;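 further: hamsters given high-fat chow for four weeks, then dosed by gavage, plasma lipids measured in abdominal aortic blood after a 12 h fast, compared with vehicle-treated controls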
Procedure: (§5) After a week of accommodation, except control group (n=12) all the hamsters (n=72) were fed with high-fat laboratory chow.
as §3
(§6) At the end of 4 weeks drug treatment, animals were fasted for 12 hours (10 of each group). The next day, they were anesthetized by intraperitoneal injection of pentobarbitale sodium (45 mg/kg). Blood samples were collected from the abdominal aorta within 15 min, and plasma was separated. Plasma TC, TG, HDL-C, LDL-C, ALT, FFA were detected. Liver and the retroperitoneal fat were separated and weighed, the liver and fat index were calculated. Liver SOD and MDA were detected by kit after homogenized. The left hamsters (10 each group) drug treatment was withdrawn while high-fat diet modeling continued. Two weeks later, blood sample was collected from the orbit and serum TC and TG were detected.

hyperlipidemia hamsters [6] = test: Effects on hepatic SOD activity and MDA concentration in hyperlipidemic hamsters' livers; format: in vivo, hamster; details: 50 mg/kg intragastric, 4 weeks
Procedure: as §5, §3, §6

hyperlipidemia hamsters [7] = test: Serum lipid level in hyperlipidemic hamsters after drug discontinuance (2 weeks); format: in vivo, hamster; details: hamsters, 50 mg/kg; 2 weeks after drug discontinuance, high-fat diet continued
Procedure: as §5, §3, §6

hyperlipidemia rats [8] = details: rat, in vivo, 50 mg/kg
Procedure: as §2, §3, §4

hyperlipidemia hamsters [9] = details: hamster, in vivo, 50 mg/kg
Procedure: as §5, §3, §6

hyperlipidemia rats [10] = test: Effects on liver weight and serum ALT activity of hyperlipidemia rats; details: 50 mg/kg intragastric, 4 weeks
Procedure: as §2, §3, §4

**Q.** With `CC(C)OC(=O)C(C)(C)Oc1ccc(C(=O)c2ccc(Cl)cc2)cc1` [Fenofibrate, reference compound] as the compound, how does the FFA (hyperlipidemia rats [1]) read?
**A.** The FFA was 1.13 ± 0.30 mmol/L.

**Q.** What about the HDL-C (hyperlipidemia rats [1]) of the same compound?
**A.** The HDL-C was 0.59 ± 0.17 mmol/L.

**Q.** What about the HDL/LDL (hyperlipidemia rats [1]) of the same compound?
**A.** Its HDL/LDL is 0.53 ± 0.16.

**Q.** What about the LDL-C (hyperlipidemia rats [1]) of the same compound?
**A.** Its LDL-C is 1.16 ± 0.28 mmol/L.

**Q.** And the TC (hyperlipidemia rats [1])?
**A.** Its TC is 2.23 ± 0.53 mmol/L.

**Q.** And the TG (hyperlipidemia rats [1])?
**A.** The TG was 0.70 ± 0.19 mmol/L.

**Q.** What about the “Fat weight (retroperitoneal fat)” value (hyperlipidemia rats [2]) of the same compound?
**A.** Its value is 0.68 ± 0.16 g/100 g body weight.

**Q.** What about the hepatic MDA (hyperlipidemia rats [3]) of the same compound?
**A.** The hepatic MDA was 9.35 ± 2.4 nmol/mg protein.

**Q.** What about the “hepatic SOD” value (hyperlipidemia rats [3]) of the same compound?
**A.** Its value is 103.6 ± 27.9 U/g pr.

**Q.** What about the TC (hyperlipidemia rats [4]) of the same compound?
**A.** The TC was 2.08 ± 0.49 mmol/L.

**Q.** What about the TG (hyperlipidemia rats [4]) of the same compound?
**A.** The TG was 1.03 ± 0.19 mmol/L.

**Q.** And the HDL-C (hyperlipidemia hamsters [5])?
**A.** Its HDL-C is 1.48 ± 0.40 mmol/L.

**Q.** What about the HDL/LDL (hyperlipidemia hamsters [5]) of the same compound?
**A.** The HDL/LDL was 0.50 ± 0.13.

**Q.** And the LDL-C (hyperlipidemia hamsters [5])?
**A.** Its LDL-C is 3.04 ± 0.82 mmol/L.

**Q.** What about the TC (hyperlipidemia hamsters [5]) of the same compound?
**A.** The TC was 4.76 ± 1.58 mmol/L.

**Q.** And the TG (hyperlipidemia hamsters [5])?
**A.** Its TG is 3.80 ± 1.04 mmol/L.

**Q.** What about the “hepatic SOD” value (hyperlipidemia hamsters [6]) of the same compound?
**A.** Its value is 94.0 ± 16.3 U/g pr.

**Q.** And the TC (hyperlipidemia hamsters [7])?
**A.** Its TC is 5.29 ± 2.13 mmol/L.

**Q.** And the TG (hyperlipidemia hamsters [7])?
**A.** Its TG is 4.16 ± 0.86 mmol/L.

**Q.** What about the “serum ALT” value (hyperlipidemia rats [8]) of the same compound?
**A.** Its value is 40.3 ± 18.0 U/L.

**Q.** What about the ALT (hyperlipidemia hamsters [9]) of the same compound?
**A.** Its ALT is 97.3 ± 37.8 U/L.

**Q.** What about the Liver weight (hyperlipidemia rats [10]; 'rat' in hamster Table 9) of the same compound?
**A.** Its Liver weight is 4.08 ± 0.36 g/100 g body weight.

**Q.** And the Liver weight (hyperlipidemia rats [10]; hyperlipidemia rats)?
**A.** Its Liver weight is 4.08 ± 0.36 g/100 g body weight.
